From patent US4565810A, “Derivatives of biliary acids, process for the production thereof and pharmaceutical compositions containing the same” (Lehner A.G., priority 1983, dated 1986)
Where two headings read alike, the source gives them in different places.

Assays:
[1] = type: physicochemical
Text: (§1) The [α]D, pKa, the retention factor and the critical micellar concentrations (CMC), important because related to the capacity to form micelles in the bile and function of the hydrophilic/lipophilic balance, have been determined on the A, B, C, D isomers of 22,23-methanate-ursodeoxycholic acid. The CMCs have been measured by the method of the solubilization of insoluble dyes such as Azulene and Orange OT (Roda et al., J. Biol. Chem., in press).

physchem [2] = experiment: physchem
Text: as §1
*Determined by potentiometric titration.

physchem [3] = settings: c18 hplc, methanol/water; for K' (retention factor): pH 5.7
Text: as §1
**K' = Retention factor. It has been calculated from the retention times
on HPLC using as stationary phase a C18 column and as mobile phase a
mixture of methanol/H2 O 130/70; pH 5.7.

[4] = Hepatic uptake in isolated rat livers (method of Mortimore); type: in vitro ADME; settings: isolated perfused liver, mean ± SD of five determinations
bile lipid secretion = experiment: Bile flow and bile lipid secretion in anaesthetized rats; type: in vivo, Sprague-Dawley rats; settings: 50 mg i.v., bile collected for 5 h; for Bile flow: controls 0.55 ± 0.12, *** p < 0.01 vs. controls; for Cholesterol secretion: controls 1.66 ± 0.12, *** p < 0.01 vs. controls; for Phospholipid secretion: controls 6.92 ± 0.44, *** p < 0.01 vs. controls (CUDCA); for BA (bile acids) secretion: controls 61 ± 8
Text: *The control values were obtained on five rats studied under similar
conditions to the BA treated rats. Each value represents the mean plus or
minus the SD of five determinations.

[5] = biological target: human serum albumina (HSP) (Homo sapiens, UniProt P02768); experiment: Interaction with human serum albumin (albumin affinity constant)
human serum albumina (HSP), sequence (P02768 25-609): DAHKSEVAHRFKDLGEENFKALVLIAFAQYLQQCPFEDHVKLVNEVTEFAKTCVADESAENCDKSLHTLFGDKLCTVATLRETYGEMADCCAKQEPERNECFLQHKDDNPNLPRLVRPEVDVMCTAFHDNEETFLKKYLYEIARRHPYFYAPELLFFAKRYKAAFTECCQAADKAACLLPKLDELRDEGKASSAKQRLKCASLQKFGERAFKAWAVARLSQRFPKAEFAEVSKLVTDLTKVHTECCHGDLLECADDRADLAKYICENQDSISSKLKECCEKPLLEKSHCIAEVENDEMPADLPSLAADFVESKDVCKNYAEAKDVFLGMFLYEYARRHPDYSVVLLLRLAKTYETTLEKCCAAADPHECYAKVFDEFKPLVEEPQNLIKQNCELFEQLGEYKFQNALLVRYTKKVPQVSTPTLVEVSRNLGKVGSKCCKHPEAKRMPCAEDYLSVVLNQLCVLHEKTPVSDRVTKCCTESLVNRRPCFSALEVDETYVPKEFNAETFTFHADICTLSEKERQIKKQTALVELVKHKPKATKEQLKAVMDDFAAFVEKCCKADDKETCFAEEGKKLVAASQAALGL

Compound: C[C@H](C1CC1C(=O)O)[C@H]1CC[C@H]2[C@@H]3[C@@H](O)C[C@@H]4C[C@H](O)CC[C@]4(C)[C@H]3CC[C@]12C (single isomer, unassigned) [Isom. A, 22,23-methanate-ursodeoxycholic acid]
- CMC (H2O) [1]: 25 mM
- CMC (Na^+ 0.15 M) [1]: 16 mM
- pKa (physchem [2]; pKa): 5.03
- K' (retention factor) (physchem [3]): 0.21

Compound: C[C@H](C1CC1C(=O)O)[C@H]1CC[C@H]2[C@@H]3[C@@H](O)C[C@@H]4C[C@H](O)CC[C@]4(C)[C@H]3CC[C@]12C (single isomer, unassigned) [Isom. B, 22,23-methanate-ursodeoxycholic acid]
- CMC (H2O) [1]: 20 mM
- CMC (Na^+ 0.15 M) [1]: 12 mM
- pKa (physchem [2]): 5.06
- K' (retention factor) (physchem [3]): 0.80

Compound: C[C@H](C1CC1C(=O)O)[C@H]1CC[C@H]2[C@@H]3[C@@H](O)C[C@@H]4C[C@H](O)CC[C@]4(C)[C@H]3CC[C@]12C (single isomer, unassigned) [Isom. C, 22,23-methanate-ursodeoxycholic acid]
- CMC (H2O) [1]: 14 mM
- CMC (Na^+ 0.15 M) [1]: 8 mM
- pKa (physchem [2]): 5.02
- K' (retention factor) (physchem [3]): 1.30

Compound: C[C@H](C1CC1C(=O)O)[C@H]1CC[C@H]2[C@@H]3[C@@H](O)C[C@@H]4C[C@H](O)CC[C@]4(C)[C@H]3CC[C@]12C (single isomer, unassigned) [Isom. D, 22,23-methanate-ursodeoxycholic acid]
- CMC (H2O) [1]: 10 mM
- CMC (Na^+ 0.15 M) [1]: 6 mM
- pKa (physchem [2]): 5.04
- K' (retention factor) (physchem [3]): 2.05

Compound: C[C@H](C1CC1C(=O)O)[C@H]1CC[C@H]2[C@@H]3[C@@H](O)C[C@@H]4C[C@H](O)CC[C@]4(C)[C@H]3CC[C@]12C (stereo partly drawn) [CUDCA, 3α, 7β-dihydroxy-22,23-methylene-5β-cholan-24-oic acid]
- hepatic extraction ratio [4]: 0.46 ± 0.01
- Bile flow (bile lipid secretion): 1.68 ± 0.20 mL/h
- Cholesterol secretion (bile lipid secretion): 2.70 ± 0.14 µmol/kg/h
- Phospholipid secretion (bile lipid secretion): 9.50 ± 0.44 ^.parallel.mol kg^-1 h^-
- BA (bile acids) secretion (bile lipid secretion): 97 ± 9 µmol/kg/h
- Kd [5]: 14.7 µM

Compound: C[C@H](CCC(=O)O)[C@H]1CC[C@H]2[C@@H]3[C@@H](O)C[C@H]4C[C@H](O)CC[C@]4(C)[C@H]3CC[C@]12C [UDCA, 3α, 7β-dihydroxy-5α-cholan-24-oic acid, reference compound]
- CMC (H2O) [1]: 19 mM
- CMC (Na^+ 0.15 M) [1]: 11 mM
- pKa (physchem [2]; pKa): 5.06
- Bile flow (bile lipid secretion): 1.08 ± 0.15 mL/h
- Cholesterol secretion (bile lipid secretion): 2.12 ± 0.09 µmol/kg/h
- Phospholipid secretion (bile lipid secretion): 6.47 ± 0.54 ^.parallel.mol kg^-1 h^-
- BA (bile acids) secretion (bile lipid secretion): 98 ± 7 µmol/kg/h
- chromatographic logD (physchem [3]; pH 5.7, K' (retention factor)): -0.0223
